Assay results as given in ChEMBL document CHEMBL1136133, “Discovery of the first series of inhibitors of human papillomavirus type 11: inhibition of the assembly of the E1-E2-Origin DNA complex” (Bioorg Med Chem Lett, 2003).

System: human papillomavirus 11
Experiment: Inhibition of the assembly of the (HPV11) Human Papillomavirus Type 11 E1E2 Origin DNA Complex
Format: functional, organism-based

Row | SMILES | IC50 [µM]
1 | O=C(Nc1ccc2c(c1)OCO2)[C@H]1[C@@H](c2ccccc2Cl)OC2(C(=O)c3ccccc3C2=O)[C@H]1C(=O)O | > 80
2 | O=C(Nc1ccc2c(c1)OCO2)[C@H]1[C@@H](c2ccc(Cl)c(Cl)c2)OC2(C(=O)c3ccccc3C2=O)[C@H]1C(=O)O | 0.35
3 | O=C(Nc1ccc2c(c1)OCO2)[C@H]1C(c2ccc(Cl)cc2)OC2(C(=O)c3ccccc3C2=O)[C@H]1C(=O)O (stereo partly drawn) | > 80
4 | O=C1[C@H]2[C@H](c3ccc(Cl)cc3)OC3(C(=O)c4ccccc4C3=O)[C@H]2C(=O)N1c1ccc2c(c1)OCO2 | > 80
5 | O=C(Nc1ccc2c(c1)OCO2)[C@H]1[C@@H](c2ccccc2)OC2(C(=O)c3ccccc3C2=O)[C@H]1C(=O)O | 71
6 | O=C(Nc1ccc2c(c1)OCO2)[C@H]1[C@@H](c2ccc(Cl)cc2)OC2(C(=O)c3ccccc3C2=O)[C@H]1C(=O)O | 7.8
7 | O=C(Nc1ccc2c(c1)OCO2)[C@H]1[C@@H](c2cccc(Cl)c2)OC2(C(=O)c3ccccc3C2=O)[C@H]1C(=O)O | 2.6
8 | O=C1C2C(c3ccc(Cl)cc3)OC3(C(=O)c4ccccc4C3=O)C2C(=O)N1c1ccc2c(c1)OCO2 (stereo not drawn) | 11
